Laboratory results taken from patent US20060046966A1, “Antipicornaviral compounds and compositions, their pharmaceutical uses, and materials for their synthesis” (Agouron Pharmaceuticals, Inc., priority 1998, published 2006).
Read-outs that look alike come from different tables or passages of the source.

Assays:
[1] = target: T1, rhinovirus 3C protease from HRV serotype-14 (Human rhinovirus 14, UniProt P03303); assay: Inhibition of rhinovirus 3C protease (FRET assay), serotype 14; format: biochemical; settings: HRV serotype-14 3C protease, progress curves in enzyme start experiments; for kinact/KI: read-out: Protease Inhibition kobs/[I]
T1 construct: Recombinant rhinovirus 3C proteases; made in house
T1 sequence (P03303 1538-1719): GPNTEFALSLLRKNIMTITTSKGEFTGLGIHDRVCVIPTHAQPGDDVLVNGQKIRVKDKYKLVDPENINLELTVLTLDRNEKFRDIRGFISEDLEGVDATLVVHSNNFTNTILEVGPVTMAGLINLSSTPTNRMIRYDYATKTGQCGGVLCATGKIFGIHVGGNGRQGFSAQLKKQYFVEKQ
Method: Stock solutions (50 mM, in DMSO) of various compounds were prepared; dilutions were in the same solvent. Recombinant rhinovirus 3C proteases (see Birch et al., “Purification of recombinant human rhinovirus 14 3C protease expressed in Escherichia coli,” Protein Expr. Pur. 1995, 6(5), 609-618) from serotypes 14, 16, and 2 were prepared by the following standard chromatographic procedures: (1) ion exchange using Q Sepharose Fast Flow from Pharmacia; (2) affinity chromatography using Affi-Gel Blue from Biorad; and (3) sizing using Sephadex G-100 from Pharmacia. Each assay sample contained 2% DMSO, 50 mM tris pH 7.6, 1 mM EDTA, a test compound at the indicated concentration, approximately 1 μM substrate, and 50-100 nM protease. The kobs/I values were obtained from reactions initiated by addition of enzyme rather than substrate. RVP activity was measured in the fluorescence resonance energy transfer assay. The substrate was (N-terminal) DABCYL-(Gly-Arg-Ala-Val-Phe-Gln-Gly-Pro-Val-Gly)-EDANS. In the uncleaved peptide, the EDANS fluorescence was quenched by the proximal DABCYL moiety. When the peptide was cleaved, the quenching was relieved, and activity was measured as an increase in fluorescence signal. In Table 1, all data are for rhinovirus 3C protease from HRV serotype-14 (produced from the infectious cDNA clone constructed by Dr. Robert Rueckert, Institute for Molecular Virology, University of Wisconsin, Madison, Wis.). […] The data in the column designated kobs/[I] were measured from progress curves in enzyme start experiments.

HRV-14 = assay: Antirhinoviral H1-HeLa cell culture assay, HRV-14; format: cell-based, human rhinovirus; settings: HRV serotype-14, H1-HeLa cells
Method: In this cell protection assay, the ability of compounds to protect cells against HRV infection was measured by the XTT dye reduction method, which is described in Weislow et al., J. Natl. Cancer Inst. 1989, vol. 81, 577-586.
(§1) H1-HeLa cells were infected with HRV-14 at a multiplicity of infection (m.o.i.) of 0.13 (virus particles/cell) or mock-infected with medium only. Infected or mock-infected cells were resuspended at 8×10^5 cells per mL, and incubated with appropriate concentrations of the compounds to be tested. Two days later, XTT/PMS was added to test plates and the amount of formazan produced was quantified spectrophotometrically at 450/650 nm. The EC50 value was calculated as the concentration of compound that increased the percentage of formazan production in compound-treated, virus-infected cells to 50% of that produced by compound-free, mock-infected cells. The 50% cytotoxic dose (CC50) was calculated as the concentration of compound that decreased the percentage of formazan produced in compound-treated, mock-infected cells to 50% of that produced by compound-free, mock-infected cells. The therapeutic index (TI) was calculated by dividing the CC50 value by the EC50 value.
(§2) All strains of human rhinovirus (HRV) for use in this assay were purchased from American Type Culture Collection (ATCC), except for HRV serotype-14 (produced from the infectious cDNA clone constructed by Dr. Robert Rueckert, Institute for Molecular Virology, University of Wisconsin, Madison, Wis.). HRV stocks were propagated and viral assays were performed in H1-HeLa cells (ATCC). Cells were grown in minimal essential medium with 10% fetal bovine serum, available from Life Technologies (Gaithersburg, Md.).
The compounds were tested against control compounds WIN 51711, WIN 52084, and WIN 54954 (obtained from Sterling-Winthrop Pharmaceuticals), Pirodavir (obtained from Janssen Pharmaceuticals), and Pleconaril (prepared according to the method described in Diana et al., J. Med. Chem 1995, vol. 38, 1355). Antiviral data obtained for the test compounds are shown in Tables 1 and 3, where all data are for HRV serotype-14 unless otherwise noted in parentheses.

[2] = Cytotoxicity in mock-infected H1-HeLa cells (antirhinoviral assay, XTT); format: cell-based; settings: human, 50% cytotoxic dose, two days
Method: as §1, §2

[3] = Rhinovirus B, HRV14, H1-HeLa, Table 1, XTT dye reduction, read-out: Cell Protection EC50
[4] = Rhinovirus B, HRV14, H1-HeLa, Table 3, XTT, read-out: EC50

Compound	kinact/KI [1]	EC50 (HRV-14; [3])	EC50 (HRV-14; [4])	CC50 at 2 days [2]	Protease Inhibition kobs/[I] [1]	EC50 (HRV-14; Table 1, XTT dye reduction, read-out: Cell Protection EC50)	EC50 (HRV-14; Table 3, XTT, read-out: EC50)
CC(C)C[C@H](NC(=O)OCc1ccccc1)C(=O)N[C@@H](Cc1ccccc1)C(=O)N[C@H](/C=C/c1ccno1)CCC(N)=O [Comparison Compound #1, 5-(3′-(Cbz-L-Leu-L-Phe-L-Gln)-E-Propene)-isoxazole, reference compound]	573 M⁻¹ s⁻¹	> 320000 nM	> 320000 nM	–	–	–	–
CCOC(=O)/C=C/[C@H](CCC(N)=O)NC(=O)[C@H](Cc1ccc(C)cc1)NC(=O)[C@@H](NC(=O)c1cc(C)on1)C(C)(C)C [Compound A-3, Ethyl-3-((5′-Methylisoxazole-3′-carbonyl)-L-α-(t-Butyl-Gly)-L-(4-Me-Phe)-L-Gln)-E-Propenoate]	310000 M⁻¹ s⁻¹	50 nM	50 nM	–	–	–	–
CCOC(=O)/C=C/[C@H](CCC(N)=O)NC(=O)[C@H](Cc1ccc(F)cc1)NC(=O)[C@@H](NC(=O)c1cc(C)on1)C(C)(C)C [Compound A-4, Ethyl-3-((5′-Methylisoxazole-3′-carbonyl)-L-α-(t-Butyl-Gly)-L-(4-F-Phe)-L-Gln)-E-Provenoate]	270000 M⁻¹ s⁻¹	100 nM	100 nM	–	–	–	–
CCOC(=O)/C=C/[C@H](CCC(N)=O)NC(=O)[C@H](Cc1ccc(F)cc1)NC(=O)[C@@H](NC(=O)c1cc(C)on1)C(C)C [Compound A-6, Ethyl-3-[(5′-Methylisoxazole-3′-carbonyl)-L-Val-L-(4-F-Phe)-L-Gln]-E-Propenoate]	248000 M⁻¹ s⁻¹	420 nM	420 nM	–	–	–	–
CCOC(=O)/C=C/[C@H](C[C@@H]1CCCNC1=O)NC(=O)[C@H](Cc1ccc(F)cc1)NC(=O)[C@@H](NC(=O)c1cc(C)on1)C(C)C [Compound A-8, Ethyl-3-[(5′-Methylisoxazole-3′-carbonyl)-L-Val-L-(4-F-Phe)-L-((S)-Piper-Ala)}-E-Propenoate]	900000 M⁻¹ s⁻¹	–	–	–	–	–	–
CCOC(=O)/C=C/[C@H](CCC(N)=O)NC(=O)[C@H](Cc1ccc(F)cc1)N(C)C(=O)[C@H](Cc1c[nH]cn1)NC(=O)c1cc(C)on1 [Compound A-9, Ethyl-3-{(5′-Methylisoxazole-3′-carbonyl)-L-His-NCH3-L-(4-F-Phe)-L-Gln}-E-Propenoate]	66000 M⁻¹ s⁻¹	1800 nM	1800 nM	–	–	–	–
CCOC(=O)/C=C/[C@H](CCC(N)=O)NC(=O)[C@H](Cc1ccc(F)cc1)N(C)C(=O)[C@H](Cc1ccc2ccccc2c1)NC(=O)c1cc(C)on1 [Compound A-11, Ethyl-3-{(5′-Methylisoxazole-3′-carbonyl)-L-(2-Naphth)-NCH3-L-(4-F-Phe)-L-Gln}-E-Propenoate]	108000 M⁻¹ s⁻¹	30 nM	30 nM	–	–	–	–
CCOC(=O)/C=C/[C@H](CCC(N)=O)NC(=O)[C@H](Cc1ccc(F)cc1)N(C)C(=O)[C@H](CC(C)C)NC(=O)c1cc(C)on1 [Compound A-12, Ethyl-3-{(5′-Methylisoxazole-3′-carbonyl)-L-Leu-NCH3-L-(4-F-Phe)-L-Gln}-E-Propenoate]	59300 M⁻¹ s⁻¹	400 nM	400 nM	–	–	–	–
CCOC(=O)/C=C/[C@H](CCC(N)=O)NC(=O)[C@H](Cc1ccc(F)cc1)N(C)C(=O)[C@H](Cc1cccc2ccccc12)NC(=O)c1cc(C)on1 [Compound A-13, Ethyl-3-{(5′-Methylisoxazole-3′-carbonyl)-L-(1-Naphth)-NCH3-L-(4-F-Phe)-L-Gln}-E-Propenoate]	95800 M⁻¹ s⁻¹	200 nM	200 nM	–	–	–	–
CCOC(=O)/C=C/[C@H](CCC(N)=O)NC(=O)[C@H](Cc1ccccc1)NC(=O)[C@@H](NC(=O)c1cccs1)C(C)(C)C [Compound A-14]	54500 M⁻¹ s⁻¹	480 nM	480 nM	> 100000 nM	–	–	–
CC(C)[C@H](NC(=O)C1SCCS1)C(=O)N[C@@H](Cc1ccc(F)cc1)C(=O)N[C@H](/C=C/C(=O)OCc1cccnc1)CCC(N)=O [Compound A-18]	292000 M⁻¹ s⁻¹	1500 nM	1500 nM	> 100000 nM	–	–	–
CCOC(=O)/C=C/[C@H](CCC(N)=O)NC(=O)[C@H](Cc1ccccc1)NC(=O)[C@H](CC(C)C)NC(=O)[C@@H]1C=CCN1 [Compound A-19]	27800 M⁻¹ s⁻¹	25100 nM	25100 nM	> 100000 nM	–	–	–
CCOC(=O)/C=C/[C@H](CCC(N)=O)NC(=O)[C@H](Cc1ccccc1)NC(=O)[C@H](CC(C)C)NC(=O)c1cc(C)oc1C [Compound A-20]	1020 M⁻¹ s⁻¹	12600 nM	12600 nM	> 100000 nM	–	–	–
CCOC(=O)/C=C/[C@H](CCC(N)=O)NC(=O)[C@H](Cc1ccccc1)NC(=O)[C@H](CC(C)C)NC(=O)c1cc(C)[nH]n1 [Compound A-22]	2400 M⁻¹ s⁻¹	–	–	–	–	–	–
CCOC(=O)/C=C/[C@H](CCC(N)=O)NC(=O)[C@H](Cc1ccccc1)NC(=O)[C@H](CC(C)C)NC(=O)c1cc(C)cs1 [Compound A-23]	26000 M⁻¹ s⁻¹	–	–	–	–	–	–
CCOC(=O)/C=C/[C@H](C[C@@H]1CCNC1=O)NC(=O)[C@H](Cc1ccccc1)NC(=O)[C@@H](NC(=O)OCc1ccccc1)C(C)C [Compound A-25, Ethyl-3-{Cbz-L-Val-L-Phe-L-((S)-Pyrrol-Ala)}-E-Propenoate]	500000 M⁻¹ s⁻¹	30 nM	30 nM	–	–	–	–
CCOC(=O)/C=C/[C@H](C[C@@H]1CCCNC1=O)NC(=O)[C@H](Cc1ccccc1)NC(=O)[C@H](CC(C)C)NC(=O)OCc1ccccc1 [Compound A-26, Ethyl-3-{Cbz-L-Leu-L-Phe-L-((S)-Piper-Ala)}-E-Provenoate]	239000 M⁻¹ s⁻¹	30 nM	30 nM	–	–	–	–
CCOC(=O)/C=C/[C@H](C[C@H]1CCNC1=O)NC(=O)[C@H](Cc1ccccc1)NC(=O)[C@H](CC(C)C)NC(=O)OCc1ccccc1 [Compound A-27, Ethyl-3-{Cbz-L-Leu-L-Phe-L-((R)-Pyrrol-Ala)}-E-Propenoate]	18000 M⁻¹ s⁻¹	1600 nM	1600 nM	–	–	–	–
Cc1cc(C(=O)N[C@H](C(=O)C[C@@H](Cc2ccc(F)cc2)C(=O)N[C@H](/C=C2\CCOC2=O)C[C@@H]2CCNC2=O)C(C)C)no1 [Compound B-3, 2-{(5′-Methylisoxazole-3′-carbonyl)-L-ValΨ(COCH2)-L-(4-F-Phe)-L-((S)-Pyrrol-Ala)}-E-(α-Vinyl-γ-Butyrolactone)]	465000 M⁻¹ s⁻¹	180 nM	180 nM	–	–	–	–
CCOC(=O)/C=C/[C@H](C[C@@H]1CCCNC1=O)NC(=O)[C@@H](CC(=O)[C@@H](NC(=O)c1cc(C)on1)C(C)C)Cc1ccc(F)cc1 [Compound B-4, Ethyl-3-[(5′-Methylisoxazole-3′-carbonyl)-L-ValΨ(COCH2)-L-(4-F-Phe)-L-((S)-Piper-Ala)}-E-Propenoate]	500000 M⁻¹ s⁻¹	< 30 nM	< 30 nM	–	–	–	–
CCOC(=O)/C=C/[C@H](CCC(N)=O)NC(=O)[C@H](Cc1ccc(F)cc1)OC(=O)[C@@H](NC(=O)c1cc(C)on1)C(C)C [Compound C-1, Ethyl-3-{(5′-Methylisoxazole-3′-carbonyl)-L-Val-O-L-(4-F-Phe)-L-Gln}-E-Propenoate]	68400 M⁻¹ s⁻¹	100 nM	100 nM	–	–	–	–
Ethyl-3-((5′-Methylisoxazole-3′-carbonyl)-L-Leu-NCH3-L-Phe-L-Gln)-E-Provenoate [Compound A-10]	–	–	–	–	108,000 M^−1sec^−1	140 nM	140 nM
